Reference: patent publication EP4702978A1, “AGENT FOR TREATING OR PREVENTING AMYOTROPHIC LATERAL SCLEROSIS” (Socium Inc., priority 2023, dated 2024)
Entries after “also recorded” stand apart in the source; their conditions may differ. Like-named read-outs stand apart in the source and are kept apart here.

Key:
[1] = cited from earlier work
[2] = cited from earlier work; remark: listed apart in the source
[3] = Reported pharmacokinetics of D-cycloserine after oral administration to humans; format: in vivo; details: estimated; 15 mg orally administered twice daily
[4] = test system: Neuro2a cells transfected with the TDP-43 gene; test: Inhibition of cell death in neuronally differentiated Neuro2a cells transfected with the TDP-43 gene (Example 1); format: cell-based, Mouse; details: evaluated 7 days after transfection; for EC50: Mus musculus, N2a, compound added 5 hours after transfection, 10-10,000 nmol/L, relative viability, read-out: EC50 (inhibition of cell death in nerve cells forcibly expressing TDP-43); for inhibition of cell death: cells transfected with the TDP-43 gene, Figures 3C and 4
Method: (§1) Mouse neuroblastoma (Neuro2a) cells were seeded on a dish. The Neuro2a cells were cultured in a culture medium containing DMEM+10% FBS at 37°C in the presence of 5% CO2. On the first day after seeding, differentiation into neurons was initiated. Differentiation into neurons was performed in a culture medium containing DMEM+2% FBS+20 µmol/L retinoic acid. On the fourth day after seeding, cells were transfected with synthesized TDP-43 mRNA by a lipofection method. Cells were sampled at 6 hours, 9 hours, 12 hours, 15 hours, 18 hours, and 21 hours after transfection. […] For sampling, cells were lysed in an RIPA buffer and centrifuged at 22,000 Xg for 30 minutes at 4°C, the supernatant was used as the soluble fraction, the precipitate was used as the insoluble fraction, and equal volumes of a 2×SDS sample buffer were added to the respective fractions and heated at 95°C for 5 minutes to prepare electrophoresis samples. The electrophoresis samples were subjected to electrophoresis using a polyacrylamide gel, TDP-43 was then transferred to a PVDF membrane. TDP-43 was detected through chemiluminescence using anti-TDP-43 antibodies as primary antibodies and HRP-conjugated anti-rabbit antibodies as secondary antibodies. […] The insoluble fractions of TDP-43 indicate the aggregation of TDP-43.
Neuro2a cells were seeded on a dish. On the first day after seeding, differentiation into neurons was initiated. On the fourth day after seeding, cells were transfected with the TDP-43 gene. […] In addition, as a control, 10 nmol/L, 50 nmol/L, 100 nmol/L, 500 nmol/L, 1,000 nmol/L, 5,000 nmol/L, or 10,000 nmol/L of ropinirole was added to a culture medium.
The proportion of dead cells was evaluated 7 days after the cells were transfected with the TDP-43 gene.

[5] = test system: TDP-43 in motor neurons derived from iPS cells of ALS patients; test: Soluble and insoluble fractions of TDP-43 in motor neurons derived from iPS cells of ALS patients, Western blot (Example 3); format: cell-based, human; details: 10 µmol/L, cultured for 20 days; for bands for soluble and insoluble fractions of TDP-43: Figure 7; for average proportion of insoluble fractions of TDP-43: three experiments, DMSO control about 46.1%, Figure 8
TDP-43 = test: Soluble and insoluble fractions of TDP-43 in TDP-43-transfected Neuro2a cells, Western blot (Example 2); format: cell-based, Mouse; details: 10 µmol/L added 6 hours after transfection, cultured for 12 hours; for soluble fractions versus insoluble fractions of TDP-43 in the cells: Figure 5; for proportion of insoluble fractions based on a total number of soluble fractions and insoluble fractions of TDP-43: Figure 6
Method: as §1
Neuro2a cells were seeded on a dish. On the first day after seeding, differentiation into neurons was initiated. On the fourth day after seeding, cells were transfected with the TDP-43 gene.

[6] = test system: TDP-43 in motor neurons derived from iPS cells of healthy subjects; test: Soluble and insoluble fractions of TDP-43 in motor neurons derived from iPS cells of healthy subjects, Western blot (Example 3); format: cell-based, human; details: 10 µmol/L, cultured for 20 days, Figure 7

N[C@@H]1CONC1=O [D-cycloserine, (4R)-4-Amino-1,2-oxazolidin-3-one]
side effects ([1]; 150 mg administered to humans): causes headaches
side effects ([1]; 250 mg administered to humans in order to treat tuberculosis): serious side effects such as epileptiform seizure and mental confusion
Cmax ([2]; 15 mg orally administered to humans, read-out: maximum blood concentration (Cmax)): ~5.6 µM
half-life ([2]; reported): about 10 hours
trough value [3]: > 128 nmol/L
EC50 [4]: 128 nM
inhibition of cell death [4]: cell death was inhibited; also recorded: exhibited an effect of inhibiting cell death in a concentration-dependent manner
bands for soluble and insoluble fractions of TDP-43 [5]: bands for soluble fractions of TDP-43 were clearly observed, and bands for insoluble fractions were unclear
average proportion of insoluble fractions of TDP-43 [5]: about 17.4%
soluble fractions versus insoluble fractions of TDP-43 in the cells (TDP-43): the number of soluble fractions of TDP-43 was larger than the number of insoluble fractions of TDP-43
proportion of insoluble fractions based on a total number of soluble fractions and insoluble fractions of TDP-43 (TDP-43): less than half
bands for soluble and insoluble fractions of TDP-43 [6]: bands for soluble fractions of TDP-43 were clearly observed, and bands for insoluble fractions were unclear

N[C@H]1CONC1=O [L-cycloserine, (4S)-4-amino-1,2-oxazolidin-3-one]
EC50 [4]: 237 nM
inhibition of cell death [4]: exhibited an effect of inhibiting cell death in a concentration-dependent manner
soluble fractions versus insoluble fractions of TDP-43 in the cells (TDP-43): the number of soluble fractions of TDP-43 was larger than the number of insoluble fractions of TDP-43
proportion of insoluble fractions based on a total number of soluble fractions and insoluble fractions of TDP-43 (TDP-43): less than half

CC(=O)NCCCS(=O)(=O)O [acamprosate, 3-(acetylamino)propylsulfonic acid]
side effects ([1]; administered to humans, dose not stated): anaphylaxis associated with symptoms such as generalized skin rash, rash, urticaria, stomatitis, laryngospasm, and shortness of breath; also recorded: angioedema associated with symptoms such as tongue swelling and lymphadenopathy

CCCN(CCC)CCc1cccc2c1CC(=O)N2 [ropinirole]
EC50 [4]: 198 nM
bands for soluble and insoluble fractions of TDP-43 [5]: bands for soluble fractions of TDP-43 were clearly observed, and bands for insoluble fractions were unclear
average proportion of insoluble fractions of TDP-43 [5]: about 19.3%
bands for soluble and insoluble fractions of TDP-43 [6]: bands for soluble fractions of TDP-43 were clearly observed, and bands for insoluble fractions were unclear
